Laboratory results published in article PMC6278378, “Virtual Screening, Biological Evaluation, and 3D-QSAR Studies of New HIV-1 Entry Inhibitors That Function via the CD4 Primary Receptor” (Molecules, 2018).
“Also recorded” adds a separate entry of the source.

How the values were obtained:
[1] = target: T1, CD4 (Homo sapiens, UniProt P01730); experiment: CD4 competitive binding assay (FITC anti-human CD4 antibody, SUP-T1 cells)
T1 construct: endogenous in cells; host or cells: SUP-T1 cells
Experimental: We chose CD4-expressing SUP-T1 cells to perform the competitive CD4 binding assay. Non-labeled anti-human CD4 antibody (RPA-T4 clone, BioLegend, San Diego, CA, USA) was used as a positive control.
The SUP-T1 cells were cultured in RPMI1640 medium supplemented with 10% (v/v) fetal bovine serum (FBS), 100 IU penicillin, 0.1 mg/mL streptomycin, and 2 mM L-glutamine. After collecting and washing twice with fluorescence activated cell sorting (FACS) buffer (0.5% BSA, 0.05% sodium azide in PBS) by centrifugation, SUP-T1 cells were seeded in a 96-well v-bottom plate at 5 × 10^5 cells/well. The supernatant was discarded by centrifugation and the cell pellet was resuspended with 50 μL various 2× concentrations of test compounds and 50 μL fluorescein isothiocyanate (FITC) labeled anti-human CD4 antibody (RPA-T4 clone, BioLegend, San Diego, CA, USA). The plate was incubated for 40 min on ice. After incubation, the cells were washed twice with FACS buffer by centrifugation, and then resuspended with the assay buffer. The FACS buffer was added at a volume of 50 μL per well. The fluorescence (485EX/528EM) was recorded using a Synergy II plate reader (BioTek Instruments, Inc., Winooski, VT, USA). Experimental data were generated in duplicate each time, and from at least three independent experiments. The mean values of fluorescence were normalized and expressed as a percentage of the control group values. Binding curves and IC50 values were calculated by GraphPad Prism 7 (GraphPad Software Inc., La Jolla, CA, USA) and presented as the mean ± SEM.

[2] = tested on: HIV-1; design: method as in PMID 12207905; conditions: inactive or weakly active; cited from earlier work
[3] = tested on: SUP-T1 cells; experiment: SUP-T1 cell viability assay; type: cell-based; conditions: up to 200 μM
Experimental: We also performed a cell viability assay to test the potential cytotoxicity of 3. In parallel with the competitive CD4 binding assay described above, the same densities of SUP-T1 cells were seeded and treated with the test compounds for the same duration.

[4] = tested on: PBMCs; experiment: PBMC viability assay (CellTiter-Blue); type: cell-based; conditions: up to 150 μM
Experimental: We employed a cell viability assay to test the potential cytotoxicity of 3. In parallel with the anti-HIV-1 assay described above, the same densities of PBMCs were seeded and treated with the test compounds for the same duration.
Blood samples were collected from healthy donors and diluted with an equal amount of 1× PBS. Approximately 15 mL Ficoll was transferred to a sterile 50 mL tube, and then overlaid with 15 mL diluted blood. After centrifugation (Centrifuge 5810R, Eppendorf, Hamburg, Germany) at 1800 rpm for 30 min at room temperature, the PBMCs were obtained and washed twice with 40 mL 1× PBS by centrifugation (1100 rpm, 10 min for each time) at room temperature. Cell pellets were resuspended in 50 mL RPMI 1640 supplemented with 10% FBS and 100 μg/mL Phytohemagglutinin (PHA, Sigma-Aldrich, St. Louis, MO, USA) and cultured for 24 h at 37 °C with 5% CO2. […]
In addition to the anti-HIV assays described above, the same numbers of PBMCs were seeded and treated with the test compounds for the same periods. After a 24 h incubation at 37 °C, the cell viability was determined using the CellTiter-Blue (Promega Co., Madison, WI, USA) cell viability assay. The fluorescence (560EX/590EM) was recorded using a Synergy II microplate reader.

[5] = tested on: HIV-1 NL4-3 strain; experiment: Anti-HIV-1 infection assay (CEM-GFP reporter cells, GFP fluorescence); type: cell-based; conditions: Human immunodeficiency virus 1, NL43, HIV-1 NL4-3, 4-5 days
Text: We performed anti-HIV-1 infection and anti-HIV-1 entry assays by measuring GFP expression and intracellular p24 antigen level. For the anti-HIV-1 infection assays, the CEM-GFP reporter cell line was used, and HIV-1 infection induced a 10- to 1000-fold increase in the relative fluorescence of the cells.
The CEM-GFP cells were obtained from the NIH AIDS program (NIH AIDS Reagent Program, Division of AIDS, NIAID, NIH: CEM-GFP Cells from Dr. Jacques Corbeil) and cultured in RPMI 1640 medium containing 10% FBS, 1% penicillin-streptomycin (Life Technologies, Carlsbad, CA, USA), 1% 200 mM L-glutamine (Mediatech-VWR, Aurora, CO, USA), and 500 µg/mL G418 (BioPioneer Inc, San Diego, CA, USA). After collecting and counting, the CEM-GFP cells were infected with HIV-1 NL4-3 strain (MOI 0.01) at 37 °C for 2–3 h, cells were then washed twice with PBS, and 10^5 cells/well were seeded into a 96-well plate in the presence of different concentrations of test compounds. After culturing at 37 °C with 5% CO2 for 4 or 5 days, the GFP fluorescence (485EX/528EM) was measured using a Synergy II microplate reader (BioTek Instruments, Inc., Winooski, VT, USA).

[6] = tested on: HIV-1 (NL4-3 strain); experiment: microbe, parasite or virus in culture; type: cell-based; conditions: Human immunodeficiency virus 1, NL43, PBMC; PBMCs, HIV-1 NL4-3, 24 h; read-out: IC50, HIV-1 entry inhibition (intracellular p24)
Experimental: We also performed anti-HIV-1 entry assays to investigate the potential suppression by 3 of HIV-1 infection via its entry mechanism.
The Anti-HIV-1 entry assay was performed by measuring intercellular p24 antigen. Before the infection, PBMCs (2.5 × 10^6 cells/mL) were added into 96-well plates at 100 μL/well, then co-incubated with compounds of various concentrations for 2 h. PBMCs were then washed twice with PBS and infected with the NL4-3 strain of HIV-1 at an MOI of 0.02 for 2 h at 37 °C with 5% CO2 (CO2 incubator, Eppendorf, Hamburg, Germany). After two washes with PBS (1200 rpm, 20 °C, 5 min), the cells were re-suspended in 100 µL complete medium and incubated for 24 h. Subsequently, the PBMCs were washed and resuspended in 100 µL/well lysis buffer containing 1% protease inhibitor cocktail (Sigma-Aldrich, St. Louis, MO, USA). The intercellular p24 antigen was measured according to the protocol provided with the HIV-1 ELISA kit (PerkinElmer Inc. Waltham, MA, USA).

[7] = tested on: various cancer cell lines; design: method as in PMID 26474275, PMID 22524450; conditions: 100 μM; by increasing intracellular ROS level; cited from earlier work

O=C(O)CCc1c2ccc(=O)c(O)c-2oc2c(O)c(O)ccc12 [Compound 3, 3-(4,5,6-trihydroxy-3-oxo-3H-xanthen-9-yl) propanoic acid]
inhibition at 100 µM ([1]; 100 μM, inhibition of anti-human CD4 antibody binding to SUP-T1 cells): 94.9%
IC50 ([1]; SUP-T1 cells, anti-human CD4 antibody competition): 45 µM
PInhibition (Experimental Data) ([1]; transformed from % inhibition at 100 μM, presented as -ln): 5.273
protection in anti-HIV-1 infection assay [2]: 0–49%
Cytotoxicity in SUP-T1 cell viability assay [3]: no cytotoxicity
Cytotoxicity in SUP-T1 cell viability assay ([3]; listed as NSC119915): not showing any cytotoxicity
Cytotoxicity in PBMCs [4]: without a cytotoxicity effect; also recorded: no cytotoxicity; also recorded: did not show an ability to affect cell growth
IC50 [5]: 10 µM
IC50 [6]: 9 µM
growth inhibition of cancer cell lines [7]: inhibit the growth
